Assays:
[1] = test system: VCAM-1, ICAM-1, E-selectin; assay: qRT-PCR of UVB-induced adhesion molecule expression in skin; type: in vivo, mouse; conditions: 1.0% GDL feed 2 weeks; UVB 40 mJ/cm^2; 24 hours after irradiation
Method: (§1) HR-1 hairless mice (female, 8 weeks of age) (Japan SLC, Inc.) were bred in conditions of a temperature of 23±1° C., a humidity of 50±1%, and a lighting time of 7:00 to 19:00, and the mice freely ingested feed and water during the test period. […] After the two-week ingestion term, two sites (an irradiation site and a non-irradiation site) of 1.5 cm×1.0 cm were set in contiguity with each other on the back of the mouse under pentobarbital anesthesia, and irradiation was applied to the irradiation site in a UVB exposure dose of 1 mW/cm^2 for 40 seconds (40 mJ/cm^2). After 24 hours from the irradiation, blood was drawn from a heart, and the skin was taken from the UVB non-irradiation site and the irradiation site, from which RNA was extracted. A gene expression level of the molecule, shown below, was quantified from the extracted RNA according to qRT-PCR. […]

MMP13, MMP2, MMP9, MMP14 = assay: qRT-PCR of UVB-induced dermal denaturation-related molecule expression in skin; type: in vivo, mouse; conditions: 1.0% GDL feed 2 weeks; UVB 40 mJ/cm^2; 24 hours after irradiation
Method: HR-1 hairless mice (female, 8 weeks of age) (Japan SLC, Inc.) were bred in conditions of a temperature of 23±1° C., a humidity of 50±1%, and a lighting time of 7:00 to 19:00, and the mice freely ingested feed and water during the test period. […] After the two-week ingestion term, two sites (an irradiation site and a non-irradiation site) of 1.5 cm×1.0 cm were set in contiguity with each other on the back of the mouse under pentobarbital anesthesia, and irradiation was applied to the irradiation site in a UVB exposure dose of 1 mW/cm^2 for 40 seconds (40 mJ/cm^2). After 24 hours from the irradiation, blood was drawn from a heart, and the skin was taken from the UVB non-irradiation site and the irradiation site, from which RNA was extracted. A gene expression level of the molecule, shown below, was quantified from the extracted RNA according to qRT-PCR. As a TaqMan Gene Expression Assay (Applied Biosystems) probe, which specifically detects a target gene, were used Il-1b (Mm01336189_m1; IL-1b, Il-6 (Mm00446190_m1; IL-6), Gm-csf (Mm01290062_m1; GM-CSF), Tnf (Mm00443258_m1; TNFa), Ptgs2 (Mm01307329_m1; COX-2), Tlr3 (Mm01207404_m1; TLR3), Socs3 (Mm00545913_s1; SOCS3), Vcam1 (Mm01320970_m1; VCAM-1), Icam1 (Mm00516023_m1; ICAM-1), Sele (Mm00441278_m1; E-selectin), Edn1 (Mm00438656_m1; EDN1), Kit1 (Mm00442972_m1; SCF), C-kit (Mm00445212_m1; c-Kit), Lif (Mm00434761_m1; LIF), Fgf2 (Mm00433287_m1; FGF2), Hgf (Mm01135185_m1; HGF), Pcna (Mm00448100_g1; PCNA), Ccnd1 (Mm00432359_m1; CyclinD1), Mmp13 (Mm00439491_m1; MMP13), Mmp2 (Mm00439506_m1; MMP2), Mmp9 (Mm00442991_m1; MMP9), and Mmp14(Mm00485054_m1; MMP14). A target gene expression level was corrected by an expression level of an internal standard gene Rplp0 (Mm01974474_gH; RPLP0). […] The obtained values are expressed as Ave.±S.D., n=10, and as for a statistical significance test between many groups, a multiple comparison test according to Dunnett was performed (*p<0.05, **p<0.01 (vs Cont UVB+). • IL-1β: Interleukin-1β • IL-6: Interleukin-6 • GM-CSF: Granulocyte macrophage colony-stimulating factor • TNFα: Tumor necrosis factor α • COX-2: Cyclooxygenase-2 • TLR3: Toll-like receptor 3 • SOCS3: Suppressor of cytokine signaling 3 • VCAM-1: Vascular cell adhesion molecule-1 • ICAM-1: Intercellular adhesion molecule-1 • E-selectin • EDN1: Endothelin 1 • SCF: Stem cell factor (kit-ligand) • c-Kit • LIF: Leukemia inhibitory factor • FGF2: Fibroblast growth factor 2 (basic) • HGF: Hepatocyte growth factor • PCNA: Proliferating cell nuclear antigen • CyclinD1 • MMP13: Matrix metallopeptidase 13 (Collagenase 3) • MMP2: Matrix metallopeptidase 2 (Gelatinase A) • MMP9: Matrix metallopeptidase 9 (Gelatinase B) • MMP14: Matrix metallopeptidase 14 (membrane-inserted)

HRM-2 hairless mice = assay: Long-term repeated UVB irradiation (20 weeks): pigmentation, stratum corneum function, skin elasticity; type: in vivo, mouse; conditions: 2.0% GDL feed
Source text: After a test feed was previously ingested for 3 weeks, UVB irradiation was applied to the UVB irradiation groups once per day over 20 weeks. As an ultraviolet resistance was obtained by continuous irradiation, a UVB irradiation intensity was increased from 40 mJ/cm^2 to 130 mJ/cm^2 in stages (irradiation in 0 to the first week: 40 mJ/cm^2, irradiation in the second to the forth weeks: 54 mJ/cm^2, irradiation in the fifth to the seventh weeks: 72 mJ/cm^2, irradiation in the eighth to the twelfth weeks: 108 mJ/cm^2, irradiation in the thirteenth to the fourteenth weeks: 120 mJ/cm^2, irradiation in the fifteenth to twentieth weeks: 130 mJ/cm^2). During the UVB irradiation term, the test feed was ingested. At the time of the grouping, and the irradiation 0th, 4th, 8th, 12th, 16th, and 20th weeks, the measurements of L*values using a spectrophotometer, TEWL values using a Tewameter, and stratum corneum moisture contents (the Capacitance value) using a Corneometer were performed. At the irradiation 20th week, skin physical parameters were measured using a Cutometer. The obtained values are expressed as Ave.±S.D., n=10-11, and the multiple comparison test was performed according to Tukey-Kramer.

[2] = test system: EDN1, c-Kit, LIF, FGF2, HGF; assay: qRT-PCR of UVB-induced melanin synthesis-related molecule expression in skin; type: in vivo, mouse; conditions: 1.0% GDL feed 2 weeks; UVB 40 mJ/cm^2; 24 hours after irradiation
Method: (§2) HR-1 hairless mice (female, 8 weeks of age) (Japan SLC, Inc.) were bred in conditions of a temperature of 23±1° C., a humidity of 50±1%, and a lighting time of 7:00 to 19:00, and the mice freely ingested feed and water during the test period. […] After the two-week ingestion term, two sites (an irradiation site and a non-irradiation site) of 1.5 cm×1.0 cm were set in contiguity with each other on the back of the mouse under pentobarbital anesthesia, and irradiation was applied to the irradiation site in a UVB exposure dose of 1 mW/cm^2 for 40 seconds (40 mJ/cm^2). After 24 hours from the irradiation, blood was drawn from a heart, and the skin was taken from the UVB non-irradiation site and the irradiation site, from which RNA was extracted. A gene expression level of the molecule, shown below, was quantified from the extracted RNA according to qRT-PCR. As a TaqMan Gene Expression Assay (Applied Biosystems) probe, which specifically detects a target gene, were used Il-1b (Mm01336189_m1; IL-1b, Il-6 (Mm00446190_m1; IL-6), Gm-csf (Mm01290062_m1; GM-CSF), Tnf (Mm00443258_m1; TNFa), Ptgs2 (Mm01307329_m1; COX-2), Tlr3 (Mm01207404_m1; TLR3), Socs3 (Mm00545913_s1; SOCS3), Vcam1 (Mm01320970_m1; VCAM-1), Icam1 (Mm00516023_m1; ICAM-1), Sele (Mm00441278_m1; E-selectin), Edn1 (Mm00438656_m1; EDN1), Kit1 (Mm00442972_m1; SCF), C-kit (Mm00445212_m1; c-Kit), Lif (Mm00434761_m1; LIF), Fgf2 (Mm00433287_m1; FGF2), Hgf (Mm01135185_m1; HGF), Pcna (Mm00448100_g1; PCNA), Ccnd1 (Mm00432359_m1; CyclinD1), Mmp13 (Mm00439491_m1; MMP13), Mmp2 (Mm00439506_m1; MMP2), Mmp9 (Mm00442991_m1; MMP9), and Mmp14(Mm00485054_m1; MMP14). A target gene expression level was corrected by an expression level of an internal standard gene Rplp0 (Mm01974474_gH; RPLP0). An analysis was performed using 7500 Fast Real-Time PCR System (Applied Biosystems). The obtained values are expressed as Ave.±S.D., n=10, and as for a statistical significance test between many groups, a multiple comparison test according to Dunnett was performed (*p<0.05, **p<0.01 (vs Cont UVB+). • IL-1β: Interleukin-1β • IL-6: Interleukin-6 • GM-CSF: Granulocyte macrophage colony-stimulating factor • TNFα: Tumor necrosis factor α • COX-2: Cyclooxygenase-2 • TLR3: Toll-like receptor 3 • SOCS3: Suppressor of cytokine signaling 3 • VCAM-1: Vascular cell adhesion molecule-1 • ICAM-1: Intercellular adhesion molecule-1 • E-selectin • EDN1: Endothelin 1 • SCF: Stem cell factor (kit-ligand) • c-Kit • LIF: Leukemia inhibitory factor • FGF2: Fibroblast growth factor 2 (basic) • HGF: Hepatocyte growth factor • PCNA: Proliferating cell nuclear antigen • CyclinD1 • MMP13: Matrix metallopeptidase 13 (Collagenase 3) • MMP2: Matrix metallopeptidase 2 (Gelatinase A) • MMP9: Matrix metallopeptidase 9 (Gelatinase B) • MMP14: Matrix metallopeptidase 14 (membrane-inserted)

HR-1 hairless mice = assay: Ultraviolet-induced erythema (a* value) and epidermal thickness after oral GDL mixed feed; type: in vivo, mouse; conditions: UVB 40 mJ/cm^2
Method: HR-1 hairless mice (female, 8 weeks of age) (Japan SLC, Inc.) were bred in conditions of a temperature of 23±1° C., a humidity of 50±1%, and a lighting time of 7:00 to 19:00, and the mice freely ingested feed and water during the test period. […] After the two-week ingestion term, two sites (an irradiation site and a non-irradiation site) of 1.5 cm×1.0 cm were set in contiguity with each other on the back of the mouse under pentobarbital anesthesia, and irradiation was applied to the irradiation site in a UVB exposure dose of 1 mW/cm^2 for 40 seconds (40 mJ/cm^2). A degree of erythema was evaluated after 2 days from the irradiation by a skin color (a*value) measurement using a spectrophotometer SE-6000 (Nippon Denshoku Industries Co., Ltd.). The a*value is an index showing redness of the skin color, and it can be said that the skin turns more red, namely, the more erythema are generated, as the a* value is increased.
After the measurement, blood was drawn from a heart under deep anesthesia, and the skin was taken from the UVB non-irradiation site and the irradiation site. […] As for an epidermal thickness, an average value of epidermal thicknesses at 15 arbitrary points per tissue was defined as the epidermal thickness of the tissue.

PCNA, CyclinD1 = assay: qRT-PCR of UVB-induced proliferation-related molecule expression in skin; type: in vivo, mouse; conditions: 1.0% GDL feed 2 weeks; UVB 40 mJ/cm^2; 24 hours after irradiation
Method: as §1

healthy males = assay: Human crossover test, capsule including glucono-δ-lactone: MED, erythema, pigmentation after UVB; type: in vivo; conditions: 2000 mg glucono-δ-lactone per day orally
Method: A 4-week ingestion interval was provided between the first half and the last half of the crossover test. Glucono-δ-lactone, which is a test product, is a food additive (Fuso Chemical Co., Ltd.), and the intake was divided into twice a day for ingestion. After a 3-week ingestion term, irradiation was applied to an upper arm inside part with a UVB intensity of 1 mW/cm^2 for 7 different time periods, each at different sites (an irradiation area of 0.6 cm×1.0 cm per site). After 24 hours from the UVB irradiation, an MED value (the minimum erythema dose) was visually evaluated.
After the 3-week ingestion term, irradiationwith a radiation dose corresponding to 2 MED was applied to an area of 1.5 cm×1.5 cm on the upper arm inside part with a UVB intensity of 1 mW/cm^2. After 24 hours from the UVB irradiation, a ΔAa*value (erythema intensity: a difference from that in the non-irradiation site) was measured using a spectrophotometer. Further, after one week from the UVB irradiation, a ΔL*value (degree of pigmentation: a difference from that in the non-irradiation site) in each irradiation site wasmeasuredusing the spectrophotometer. The obtained values are expressed as Ave.±S.D., n=10, and as for a statistical significance test between the two groups, a paired t-test was performed (*p<0.05, **p<0.01).

[3] = test system: IL-1β, IL-6, GM-CSF, TNFα, COX-2, TLR3, SOCS3; assay: qRT-PCR of UVB-induced inflammation-related gene expression in skin; type: in vivo, mouse; conditions: 1.0% GDL feed 2 weeks; UVB 40 mJ/cm^2; 24 hours after irradiation; corrected by Rplp0
Method: as §2

IGF-1 = conditions: applied to the skin; cited from earlier work
[4] = UVB once per day, 40 to 130 mJ/cm^2, after the UV irradiation 8th week or 12th week

O=C1O[C@H](CO)[C@@H](O)[C@H](O)[C@H]1O [GDL, Glucono-δ-lactone]
ICAM-1 expression [1]: suppressed
VCAM-1 expression [1]: suppressed
collagenase (MMP13) expression (MMP13, MMP2, MMP9, MMP14): suppressed
gelatinase MMP2 expression (MMP13, MMP2, MMP9, MMP14): suppressed
gelatinase MMP9 expression (MMP13, MMP2, MMP9, MMP14): suppressed
membrane-associated MMP (MMP14) expression (MMP13, MMP2, MMP9, MMP14): suppressed
reduction of the skin viscoelasticity (Uv/Ue) (HRM-2 hairless mice; UVB once per day over 20 weeks, Cutometer at irradiation 20th week): suppressed
decrease of L*value caused by the UVB irradiation (pigmentation) (HRM-2 hairless mice; [4]): suppressed
decrease of stratum corneum moisture content (the Capacitance value) caused by the UVB irradiation (HRM-2 hairless mice; [4]): suppressed
EDN1 expression [2]: significantly reduced
FGF2 expression [2]: significantly reduced
HGF expression [2]: significantly reduced
LIF expression [2]: significantly reduced
c-Kit expression [2]: significantly reduced
increase of a*values due to the UVB irradiation (erythema) (HR-1 hairless mice; 0.5% and 1% GDL mixed feed for 2 weeks, 2 days after irradiation): concentration-dependently suppressed
a* value in the irradiation sites compared to the irradiation sites in the control group (HR-1 hairless mice; 1% GDL group, feed for 2 weeks, 2 days after irradiation): significant suppression
increase of epidermal thickness in the irradiation sites compared to control group (HR-1 hairless mice; GDL groups (0.5%, 1%), feed for 2 weeks, HE stain): significantly suppressed
CyclinD1 expression (PCNA, CyclinD1): suppressed
PCNA expression (PCNA, CyclinD1): suppressed
Δa*values (erythema intensity) compared to the placebo group (healthy males; 2 MED UVB, after 24 hours from the UVB irradiation): significantly decreased
AL* values (degree of pigmentation) compared to the placebo group (healthy males; 2 MED UVB, after one week from the UVB irradiation): significantly decreased
MED values (minimum erythema dose) compared to the placebo group (healthy males; after 3-week ingestion, 24 hours after UVB, upper arm inside): significantly high
COX-2 gene expression in irradiation sites vs control [3]: significantly suppressed
GM-CSF gene expression in irradiation sites vs control [3]: significantly suppressed
IL-1β gene expression in irradiation sites vs control [3]: significantly suppressed
IL-6 gene expression in irradiation sites vs control [3]: significantly suppressed
SOCS3 gene expression in irradiation sites vs control [3]: significantly suppressed
TLR3 gene expression in irradiation sites vs control [3]: significantly suppressed
TNFα gene expression in irradiation sites vs control [3]: significantly suppressed

O=C(O)[C@H](O)[C@@H](O)[C@H](O)[C@H](O)CO [gluconic acid]
IGF-1 secretion (IGF-1): promoted

Reference: patent publication US20160136130A1, “Oral Ultraviolet Resistance Enhancer” (KAO CORPORATION, priority 2013, published 2016)
